According to patent publication US11787785B2 (NOVARTIS AG, priority 2021, dated 2023):

Target: T1, WIZ protein (HiBit-WIZ fusion protein) (Homo sapiens, UniProt O95785+Q96SW2)
T1 construct: expressed in transfected cells
Experiment: Quantification of WIZ protein levels in HiBit tag fusion protein assay (WIZ HiBit assay in 293T cells)
Assay type: cell-based
Set-up: remaining activity / Dmax: dose or concentration left out as unconfirmed
Details: for Dmax at 25 µM: 100 − Amax; for Dmax at 25 µM / remaining activity at 25 µM: 293T cells; for remaining activity at 25 µM: DMSO-normalized, curve-fitted percentage of WIZ-HiBit remaining at 25 uM; for DC50: WIZ HiBit assay in 293T cells, 10-point, 5-fold dose response, highest concentration 25 μM, about 18 hours, read-out: WIZ AC50
Summary of the method: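 HiBit-tagged WIZ (N-terminal tag, HSVTK promoter) stably expressed single-copy in 293T cells; 10-point 1:5 compound series, top 25 μM, ~18 h at 37 °C. Lytic HiBit/LgBit luminescence read; Amax = curve-fitted % WIZ-HiBit remaining at 25 μM, DMSO normalized to 100%.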

[1] = HEK-293T, read-out: % degradation of WIZ (100 − Amax)

T1 sequence (O95785 whole entry, the tested form may be a part): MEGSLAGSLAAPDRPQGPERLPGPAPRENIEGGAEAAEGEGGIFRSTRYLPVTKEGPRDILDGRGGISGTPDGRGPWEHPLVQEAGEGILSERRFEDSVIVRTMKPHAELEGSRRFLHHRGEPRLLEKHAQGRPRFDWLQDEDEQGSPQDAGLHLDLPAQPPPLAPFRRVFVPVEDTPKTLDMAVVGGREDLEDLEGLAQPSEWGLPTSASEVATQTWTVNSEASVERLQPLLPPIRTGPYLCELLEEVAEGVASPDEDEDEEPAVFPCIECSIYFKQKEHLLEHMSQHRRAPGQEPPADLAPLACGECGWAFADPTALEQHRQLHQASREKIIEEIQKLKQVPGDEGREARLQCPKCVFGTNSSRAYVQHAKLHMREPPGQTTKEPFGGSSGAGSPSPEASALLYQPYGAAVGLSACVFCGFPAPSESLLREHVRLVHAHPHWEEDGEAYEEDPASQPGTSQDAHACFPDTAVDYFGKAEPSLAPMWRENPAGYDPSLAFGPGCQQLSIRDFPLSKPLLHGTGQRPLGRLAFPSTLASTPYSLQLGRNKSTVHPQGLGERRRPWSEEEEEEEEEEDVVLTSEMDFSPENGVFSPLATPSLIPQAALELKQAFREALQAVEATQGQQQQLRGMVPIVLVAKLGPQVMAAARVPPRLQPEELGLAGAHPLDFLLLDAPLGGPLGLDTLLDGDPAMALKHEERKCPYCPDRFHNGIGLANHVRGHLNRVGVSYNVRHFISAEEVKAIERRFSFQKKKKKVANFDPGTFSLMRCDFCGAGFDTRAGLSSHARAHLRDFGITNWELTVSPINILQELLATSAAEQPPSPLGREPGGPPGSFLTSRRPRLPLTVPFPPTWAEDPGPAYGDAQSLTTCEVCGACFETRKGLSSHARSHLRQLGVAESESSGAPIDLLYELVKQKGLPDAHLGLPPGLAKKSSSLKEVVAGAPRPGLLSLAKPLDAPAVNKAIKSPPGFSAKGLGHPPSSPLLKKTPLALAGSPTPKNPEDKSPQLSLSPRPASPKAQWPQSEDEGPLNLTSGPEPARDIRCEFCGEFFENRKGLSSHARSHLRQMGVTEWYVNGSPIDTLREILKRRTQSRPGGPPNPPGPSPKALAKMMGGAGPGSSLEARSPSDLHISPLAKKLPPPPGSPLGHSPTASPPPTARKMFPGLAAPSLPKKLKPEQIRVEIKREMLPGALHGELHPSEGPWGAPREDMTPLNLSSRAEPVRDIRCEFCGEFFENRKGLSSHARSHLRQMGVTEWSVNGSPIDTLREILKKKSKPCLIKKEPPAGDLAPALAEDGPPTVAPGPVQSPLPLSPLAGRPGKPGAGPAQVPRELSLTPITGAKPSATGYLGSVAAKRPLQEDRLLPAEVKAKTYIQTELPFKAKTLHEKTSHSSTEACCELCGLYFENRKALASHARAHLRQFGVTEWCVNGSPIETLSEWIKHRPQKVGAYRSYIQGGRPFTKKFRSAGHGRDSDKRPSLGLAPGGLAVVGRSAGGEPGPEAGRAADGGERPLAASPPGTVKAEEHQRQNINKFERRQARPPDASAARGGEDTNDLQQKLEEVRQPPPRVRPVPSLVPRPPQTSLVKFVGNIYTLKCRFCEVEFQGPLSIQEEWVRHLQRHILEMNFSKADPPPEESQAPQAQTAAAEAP
T1 sequence (Q96SW2 whole entry, the tested form may be a part): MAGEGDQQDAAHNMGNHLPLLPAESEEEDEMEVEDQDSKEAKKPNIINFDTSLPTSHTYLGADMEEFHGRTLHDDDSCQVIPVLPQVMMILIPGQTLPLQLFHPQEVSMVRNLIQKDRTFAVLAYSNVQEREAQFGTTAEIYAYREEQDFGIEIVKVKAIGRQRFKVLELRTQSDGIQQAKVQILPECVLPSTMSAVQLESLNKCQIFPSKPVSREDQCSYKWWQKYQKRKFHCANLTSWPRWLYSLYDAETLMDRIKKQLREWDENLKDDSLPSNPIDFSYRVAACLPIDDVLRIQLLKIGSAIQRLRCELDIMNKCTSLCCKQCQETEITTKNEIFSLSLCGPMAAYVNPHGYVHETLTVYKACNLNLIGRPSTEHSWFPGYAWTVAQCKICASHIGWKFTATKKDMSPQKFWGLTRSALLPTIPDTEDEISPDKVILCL
T1 sequence (Q16531 whole entry partner, the tested form may be a part): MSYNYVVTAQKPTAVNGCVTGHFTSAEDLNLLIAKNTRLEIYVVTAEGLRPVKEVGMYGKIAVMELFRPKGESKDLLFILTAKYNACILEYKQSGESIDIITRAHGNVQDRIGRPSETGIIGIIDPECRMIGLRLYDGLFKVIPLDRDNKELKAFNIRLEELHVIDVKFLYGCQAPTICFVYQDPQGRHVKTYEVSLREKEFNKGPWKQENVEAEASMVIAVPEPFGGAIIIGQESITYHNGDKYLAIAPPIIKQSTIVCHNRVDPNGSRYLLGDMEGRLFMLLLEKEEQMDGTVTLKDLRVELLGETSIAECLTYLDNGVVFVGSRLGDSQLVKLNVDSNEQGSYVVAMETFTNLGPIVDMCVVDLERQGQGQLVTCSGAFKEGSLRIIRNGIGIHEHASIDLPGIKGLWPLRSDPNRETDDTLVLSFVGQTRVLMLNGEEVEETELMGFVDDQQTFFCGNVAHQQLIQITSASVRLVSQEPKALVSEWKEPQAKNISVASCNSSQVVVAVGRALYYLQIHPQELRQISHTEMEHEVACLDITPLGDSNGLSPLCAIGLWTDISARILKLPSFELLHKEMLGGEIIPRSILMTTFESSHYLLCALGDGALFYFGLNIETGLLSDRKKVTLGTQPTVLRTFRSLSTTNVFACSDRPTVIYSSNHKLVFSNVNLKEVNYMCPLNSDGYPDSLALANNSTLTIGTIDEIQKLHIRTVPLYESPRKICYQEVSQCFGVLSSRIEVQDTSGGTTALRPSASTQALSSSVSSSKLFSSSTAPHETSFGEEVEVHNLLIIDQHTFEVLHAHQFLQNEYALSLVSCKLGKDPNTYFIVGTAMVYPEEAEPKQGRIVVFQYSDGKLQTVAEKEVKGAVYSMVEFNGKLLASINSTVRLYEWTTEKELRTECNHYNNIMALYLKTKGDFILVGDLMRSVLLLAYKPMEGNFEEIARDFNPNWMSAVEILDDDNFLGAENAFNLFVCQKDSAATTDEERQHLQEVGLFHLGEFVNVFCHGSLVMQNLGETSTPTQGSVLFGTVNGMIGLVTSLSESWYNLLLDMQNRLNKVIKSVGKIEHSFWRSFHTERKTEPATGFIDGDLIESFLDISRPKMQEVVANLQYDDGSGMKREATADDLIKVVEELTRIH

Structure (SMILES)	Dmax at 25 µM [1]	remaining activity at 25 µM (HEK-293T, read-out: WIZ Amax)	DC50	Dmax [1]	remaining activity (HEK-293T, read-out: WIZ Amax)
Cc1cn(-c2cnn3ccc(C[C@@H]4CCN(CC(C)C)[C@@H](C)C4)cc23)c(=O)[nH]c1=O [Example 347, 1-(5-(((2S,4R)-1-isobutyl-2-methylpiperidin-4-yl)methyl)pyrazolo[1,5-a]pyridin-3-yl)-5-methylpyrimidine-2,4(1H,3H)-dione]	89%	11%	0.378 µM		
O=C1CCN(c2cnn3ccc(CN4CCN5[C@@H](CCS5(=O)=O)C4)cc23)C(=O)N1 [Example 315, (S)-1-(5-((1,1-dioxidohexahydro-5H-isothiazolo[2,3-a]pyrazin-5-yl)methyl)pyrazolo[1,5-a]pyridin-3-yl)dihydropyrimidine-2,4(1H,3H)-dione]	53%	47%	1.02 µM		
O=C1CCN(c2cnn3ccc(CN4CCN(CC5CCCCC5)CC4=O)cc23)C(=O)N1 [Example 255, 1-(5-((4-(cyclohexylmethyl)-2-oxopiperazin-1-yl)methyl)pyrazolo[1,5-a]pyridin-3-yl)dihydropyrimidine-2,4(1H,3H)-dione]	0%	100%	> 25 µM		
CC(C)COC(=O)N1CCC(Cc2ccn3ncc(N4CCC(=O)NC4=O)c3c2)CC1 [Example 95]	43%	57%	> 25 µM		
CC(C)C(=O)N1CCC(Cc2ccn3ncc(N4CCC(=O)NC4=O)c3c2)CC1 [Example 98, 1-(5-((1-isobutyrylpiperidin-4-yl)methyl)pyrazolo[1,5-a]pyridin-3-yl)dihydropyrimidine-2,4(1H,3H)-dione]			0.587 µM	59%	41%
O=C1CCN(c2cnn3ccc(CN4CCN5CCC[C@H]5C4)cc23)C(=O)N1 [Example 260, (S)-1-(5-((hexahydropyrrolo[1,2-a]pyrazin-2(1H)-yl)methyl)pyrazolo[1,5-a]pyridin-3-yl)dihydropyrimidine-2,4(1H,3H)-dione]	68%	32%	0.796 µM		
O=C1CCN(c2cnn3ccc(CC4C[C@H]5CC[C@@H](C4)N5Cc4cccnc4)cc23)C(=O)N1 (stereo partly drawn) [Example 68, 1-(5-(((1R,5S)-8-(pyridin-3-ylmethyl)-8-azabicyclo[3.2.1]octan-3-yl)methyl)pyrazolo[1,5-a]pyridin-3-yl)dihydropyrimidine-2,4(1H,3H)-dione]	57%	43%	0.384 µM		
C[C@H]1CN(CC2CCCO2)CCN1Cc1ccn2ncc(N3CCC(=O)NC3=O)c2c1 (stereo partly drawn) [Example 225]	32%	68%	1.05 µM		
O=C1CCN(c2cnn3ccc(CC4CCN(CCO)CC4)cc23)C(=O)N1 [Example 35, 1-(5-((1-(2-hydroxyethyl)piperidin-4-yl)methyl)pyrazolo[1,5-a]pyridin-3-yl)dihydropyrimidine-2,4(1H,3H)-dione]	73%	27%	3.14 µM		
CC(C)[C@H]1CN(Cc2ccn3ncc(N4CCC(=O)NC4=O)c3c2)CCN1CC1CCOCC1 [Example 230, (S)-1-(5-((3-isopropyl-4-((tetrahydro-2H-pyran-4-yl)methyl)piperazin-1-yl)methyl)pyrazolo[1,5-a]pyridin-3-yl)dihydropyrimidine-2,4(1H,3H)-dione]	0%	100%	> 25 µM		
O=C1CCN(c2cnn3ccc(CN4CCN(C(=O)C5(C(F)(F)F)CC5)CC4)cc23)C(=O)N1 [Example 184, 1-(5-((4-(1-(trifluoromethyl)cyclopropane-1-carbonyl)piperazin-1-yl)methyl)pyrazolo[1,5-a]pyridin-3-yl)dihydropyrimidine-2,4(1H,3H)-dione]	29%	71%	1.63 µM		

The next compounds have a lower DC50 than those just listed; values first:

Dmax at 25 µM [1]	remaining activity at 25 µM (HEK-293T, read-out: WIZ Amax)	DC50	Structure (SMILES)	Dmax [1]	remaining activity (HEK-293T, read-out: WIZ Amax)
54%	46%	0.318 µM	C[C@H]1CN(CC2CCCCC2)CCN1Cc1ccn2ncc(N3CCC(=O)NC3=O)c2c1 [Example 221]		
86%	14%	0.27 µM	O=C1CCN(c2cnn3ccc(CC4CCN(C[C@H]5CC[C@H](O)CC5)CC4)cc23)C(=O)N1 [Example 151, 1-(5-((1-(((1r,4r)-4-hydroxycyclohexyl)methyl)piperidin-4-yl)methyl)pyrazolo[1,5-a]pyridin-3-yl)dihydropyrimidine-2,4(1H,3H)-dione]		
77%	23%	0.121 µM	CC(C)(CC1CCOCC1)N1CCC(Cc2ccn3ncc(N4CCC(=O)NC4=O)c3c2)CC1 [Example 137, 1-(5-((1-(2-methyl-1-(tetrahydro-2H-pyran-4-yl)propan-2-yl)piperidin-4-yl)methyl)pyrazolo[1,5-a]pyridin-3-yl)dihydropyrimidine-2,4(1H,3H)-dione]		
40%	60%	0.165 µM	O=C1CCN(c2cnn3ccc(CC4CCN(C(=O)CCc5ccccc5)CC4)cc23)C(=O)N1 [Example 102]		
70%	30%	0.043 µM	O=C1CCN(c2cnn3ccc(CC4CCN(Cc5cc(F)cc(F)c5)CC4)cc23)C(=O)N1 [Example 44, 1-(5-((1-(3,5-difluorobenzyl)piperidin-4-yl)methyl)pyrazolo[1,5-a]pyridin-3-yl)dihydropyrimidine-2,4(1H,3H)-dione]		
69%	31%	0.323 µM	CCC(CC)N1CCN(Cc2ccn3ncc(N4CCC(=O)NC4=O)c3c2)CC1 [Example 164]		
81%	19%	0.048 µM	C[C@H]1CN(Cc2ccn3ncc(N4CCC(=O)NC4=O)c3c2)CCN1CC1CCC1 [Example 213, (S)-1-(5-((4-(cyclobutylmethyl)-3-methylpiperazin-1-yl)methyl)pyrazolo[1,5-a]pyridin-3-yl)dihydropyrimidine-2,4(1H,3H)-dione]		
69%	31%	0.013 µM	Cc1c(CC2CCN(CC3CCCCC3)CC2)ccn2ncc(N3CCC(=O)NC3=O)c12 [Example 127, 1-(5-((1-(cyclohexylmethyl)piperidin-4-yl)methyl)-4-methylpyrazolo[1,5-a]pyridin-3-yl)dihydropyrimidine-2,4(1H,3H)-dione]		
72%	28%	0.068 µM	Cc1cncc(CN2CCC(Cc3ccn4ncc(N5CCC(=O)NC5=O)c4c3)CC2)c1 [Example 36, 1-(5-((1-((5-methylpyridin-3-yl)methyl)piperidin-4-yl)methyl)pyrazolo[1,5-a]pyridin-3-yl)dihydropyrimidine-2,4(1H,3H)-dione]		
81%	19%	0.098 µM	C[C@@H]1C[C@H](Cc2ccn3ncc(N4CCC(=O)NC4=O)c3c2)CCN1CC1CCOCC1 [Example 75]		
86%	14%	0.033 µM	CO[C@H]1CC[C@@H](CN2CCN(Cc3ccn4ncc(N5CCC(=O)NC5=O)c4c3)C[C@@H]2C)CC1 [Example 211, 1-(5-(((S)-4-(((1s,4R)-4-methoxycyclohexyl)methyl)-3-methylpiperazin-1-yl)methyl)pyrazolo[1,5-a]pyridin-3-yl)dihydropyrimidine-2,4(1H,3H)-dione]		
